# Key:
# [1] = biological target: bovine serum albumin (BSA) (Bos taurus, UniProt P02769); experiment: Weak affinity chromatography of steroids on BSA columns (columns B, C); format: binding; details: for k′ (capacity factor), Column B: 66 mg/g silica; for k′ (capacity factor), Column B / k′ (capacity factor), Column C: 20° C.; for k′ (capacity factor), Column C: 77 mg/g silica
# Method: (§1) Four columns were prepared, a blank diol-silica column (column A) having no binding ligands and 3 columns (columns B, C, D) loaded with albumin as the binding ligand. Column B was a silica packed column (7 μm, 300 Å porosity) loaded with 96% purity bovine serum albumin (BSA) at a concentration of 66 mg of BSA per gram of silica. Column C was a silica packed column (7 μm, 300 Å porosity) loaded with 99% purity bovine serum albumin (BSA) at a concentration of 77 mg of BSA per gram of silica. Column D was a silica packed column (7 μm, 300 Å porosity) loaded with 99% purity human serum albumin (HSA) at a concentration of 118 mg of HSA per gram of silica. All four column dimensions were 2.1×50 mm stainless steel. Immobilization of the ligands was performed batchwise with periodate activation. 0.5 g of diol-silica was used with 5 ml of H2O added. The silica was sonicated for 2 minutes, and 0.5 g of periodic acid was added to convert the diol groups to aldehyde-groups. After 2 hours of mixing, the aldehyde-silica was washed with 100 mM phosphate, pH 7.0. 5 ml of the respective ligand in 100 mM phosphate buffer, pH 7.0, was prepared. Ligand concentration was 10 mg/ml. 250 μl NaCNBH3, concentration of 0.1 mg/ml, was added. Coupling time was 40 hours at room temperature (22° C.) on mixing table.
# (§2) The system comprised the columns used in an Agilent 1200-LC-MS system. The steroids were all dissolved in ethanol at a concentration of 0.05 μg/μl. 2 μl samples were run in duplicate. Solvent buffers used included phosphate buffered saline (PBS) at pH 7.4 and 5 mM ammonium-acetate (Am-Ac) salt, pH 6.9. Column temperature was 20° C. with a flow rate of 0.400 ml/min. Detection included the use of UV diode-array detector (DAD) at 237 nm.
# (§3) The columns were tested with the PBS buffer and the Am-Ac listed above. The capacity factor (k′) and dissociation constant (Kd) were determined as set forth in U.S. Pat. No. 4,879,247 issued on Nov. 7, 1989 to Sten Ohlson, which is hereby incorporated by reference in its entirety.
# [2] = biological target: human serum albumin (HSA) (Homo sapiens, UniProt P02768); experiment: Weak affinity chromatography of steroids on HSA column; format: binding; details: for Kd: Column D, HSA 99% purity column; for k′ (capacity factor), Column D: HSA 99% purity, 118 mg/g silica, 20° C.
# Method: as §1, §2, §3
# [3] = Column B, 5 mM Am-Ac buffer pH 6.9, BSA 96% purity
# [4] = Column B, PBS buffer pH 7.4, BSA 96% purity
# [5] = Column C, 5 mM Am-Ac buffer pH 6.9, BSA 99% purity
# [6] = Column C, PBS buffer pH 7.4, BSA 99% purity
# Sequence of bovine serum albumin (BSA) (P02769 25-607): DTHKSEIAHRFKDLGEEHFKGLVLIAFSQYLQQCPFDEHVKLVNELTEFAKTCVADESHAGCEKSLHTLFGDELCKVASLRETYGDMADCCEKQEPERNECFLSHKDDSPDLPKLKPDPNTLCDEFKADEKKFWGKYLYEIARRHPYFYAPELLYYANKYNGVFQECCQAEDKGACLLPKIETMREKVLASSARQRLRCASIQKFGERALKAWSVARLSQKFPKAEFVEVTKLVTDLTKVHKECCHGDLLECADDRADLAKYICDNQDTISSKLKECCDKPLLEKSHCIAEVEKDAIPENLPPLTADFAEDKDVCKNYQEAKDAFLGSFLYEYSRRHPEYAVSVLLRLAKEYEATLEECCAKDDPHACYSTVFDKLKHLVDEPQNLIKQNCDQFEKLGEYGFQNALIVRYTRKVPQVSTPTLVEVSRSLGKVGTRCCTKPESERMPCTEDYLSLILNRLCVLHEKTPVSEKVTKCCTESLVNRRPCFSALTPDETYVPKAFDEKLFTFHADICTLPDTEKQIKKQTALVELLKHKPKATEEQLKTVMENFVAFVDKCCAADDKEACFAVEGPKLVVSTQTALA
# Sequence of human serum albumin (HSA) (P02768 25-609): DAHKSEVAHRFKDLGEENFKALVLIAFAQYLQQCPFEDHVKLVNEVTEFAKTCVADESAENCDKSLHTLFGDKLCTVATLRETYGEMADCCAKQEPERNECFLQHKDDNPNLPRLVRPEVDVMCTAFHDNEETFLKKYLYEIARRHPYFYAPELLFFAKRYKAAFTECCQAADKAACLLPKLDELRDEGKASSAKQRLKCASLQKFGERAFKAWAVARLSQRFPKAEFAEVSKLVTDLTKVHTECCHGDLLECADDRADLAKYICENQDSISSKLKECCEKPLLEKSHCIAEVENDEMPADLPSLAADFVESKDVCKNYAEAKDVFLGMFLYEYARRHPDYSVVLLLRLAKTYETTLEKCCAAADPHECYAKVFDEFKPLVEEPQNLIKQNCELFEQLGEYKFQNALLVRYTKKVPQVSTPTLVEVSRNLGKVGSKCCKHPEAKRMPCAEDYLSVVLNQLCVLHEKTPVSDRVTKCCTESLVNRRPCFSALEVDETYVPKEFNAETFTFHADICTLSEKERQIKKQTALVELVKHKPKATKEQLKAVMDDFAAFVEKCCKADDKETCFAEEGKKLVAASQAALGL
Structure (SMILES),"Kd [1, 3] [µM]","Kd [1, 4] [µM]","Kd [1, 5] [µM]","Kd [1, 6] [µM]",Kd ([2]; 5 mM Am-Ac buffer pH 6.9) [µM],Kd ([2]; PBS buffer pH 7.4) [µM],"k′ (capacity factor), Column B ([1]; 5 mM Am-Ac buffer pH 6.9, BSA 96% purity)","k′ (capacity factor), Column C ([1]; 5 mM Am-Ac buffer pH 6.9, BSA 99% purity)","k′ (capacity factor), Column B ([1]; PBS buffer pH 7.4, BSA 96% purity)","k′ (capacity factor), Column C ([1]; PBS buffer pH 7.4, BSA 99% purity)","k′ (capacity factor), Column D ([2]; 5 mM Am-Ac buffer pH 6.9)","k′ (capacity factor), Column D ([2]; PBS buffer pH 7.4)"
"C[C@]12C=CC(=O)C=C1CC[C@@H]1[C@@H]2[C@@H](O)C[C@@]2(C)[C@H]1CC[C@]2(O)C(=O)CO [Prednisolone, prednisolone]",257,230,227,216,596,602,,,,,,
"C[C@]12C=CC(=O)C=C1CC[C@@H]1[C@@H]2C(=O)C[C@@]2(C)[C@H]1CC[C@]2(O)C(=O)CO [Prednisone, prednisone]",288,274,260,250,523,516,1.01,1.17,1.07,1.23,1.78,1.74

# From patent US9448243B2, “Weak affinity chromatography” (priority 2013, dated 2016)
